Legend:
[1] = tested on: skin of subjects with sensitive skin; assay: Stinging test A, sensory irritation on the cheek of subjects with sensitive skin; assay type: in vivo, human; conditions: nonwoven fabric with 600 μL of 16.4 mM aqueous solution on the cheek, 30 seconds to 5 minutes; FIG. 2
Method: Those who met all of the following criteria were selected as subjects with sensitive skin.
The subjects selected were tested for Stinging test A according to the following method.
After washing face with a make-up remover and a face wash, conditioning was performed in an environment of a temperature of 23° C. and a humidity of 50% for 5 minutes or more. A 2 cm×5 cm piece of nonwoven fabric which was impregnated with 600 μL of a 16.4 mM aqueous solution of methyl p-hydroxybenzoate or p-hydroxybenzoic acid was contacted to the cheek. For sensory irritation that the subjects felt (sore, stinging, pricking, smart, hot, flushed) 30 seconds, 1 minute, 2 minutes, 3 minutes, and 5 minutes after the start of the contact, the subjects submitted scores (0: nothing felt, 0.5: slightly felt or slight discomfort, 1.0: a little discomfort, 1.5: a little to moderate discomfort, 2.0: moderate discomfort, 2.5: moderate to much discomfort, 3.0: much or unbearable discomfort). A value obtained by subtracting, from the highest score of all the scores after 30 seconds to 5 minutes, the highest score in a test performed in the same manner as above except for using distilled water was determined as the sensory irritation score, and the sensory irritation score was statistically analyzed by the Nilcoxon signed-rank test.

[2] = tested on: three-dimensional cultured human epidermis model; assay: IL-1α production in three-dimensional cultured human epidermis model (LabCyte EPI-MODEL 24); assay type: cell-based; conditions: 50 μL of 16.4 mM aqueous solution, cultured 6 hours, post-cultured 18 hours; FIG. 1
Method: LabCyte EPI-MODEL 24 (made by Japan Tissue Engineering Co., Ltd.) was used as a three-dimensional cultured human epidermis model. The culture insert was pre-cultured (5% CO2, 37° C.) in a 500 μL exclusive assay medium overnight, and the culture insert was transferred to a 24-well plate containing a fresh assay medium. 50 μL of a 16.4 mM aqueous solution of methyl p-hydroxybenzoate (MP) or p-hydroxybenzoic acid (PHBA) was added to the epidermal tissue in the culture insert, and the tissue was cultured for 6 hours. Then the culture insert was washed with phosphate buffer 10 times, and transferred to a 24-well plate containing a fresh assay medium, and post-cultured for 18 hours. After the post-culture, the amount of IL-1α in the medium was determined using Human IL-1 alpha/IL-1F1 Quantikine ELISA Kit (R&D Systems) according to the protocol attached.

CES1 = CES1 mRNA expression in normal human epidermal keratinocytes (real-time PCR, ΔΔ CT method); assay type: cell-based; conditions: 48 hours; for Relative gene expression level (with non treat as 1.0): CES1 mRNA, mean value ± SD, n = 3
Method: Normal human epidermal keratinocytes (Life Technologies Japan Ltd.) were seeded into a 6-well plate so that the number of cells in each well was […], and cultured in HuMedia-KG2 (KURABO INDUSTRIES LTD.) overnight. Then, an extract of broccoli sprouts (Broccoli Sprout Extract, Oryza Oil (. Fat Chemical Co., Ltd., for cosmetics) was added to the culture medium at a solid concentration of 0.0001 w/v % or 0.001 w/v %, and the cells were cultured for 48 hours. The ceils after culture was washed with D-PB3 (−) and RNA was extracted using RNeasy Mini Kits (QIAGEN) according to the manual attached. The RNA concentration was calculated by using NanoDrop 1000 (Thermo Fisher Scientific). Total RNA extracted was reverse-transcribed using High-Capacity RNA-to-cDNA Kit (Life Technologies Japan Ltd.), and then real-time PCR was performed using 7500 Fast Real-Time PCR System (Life Technologies Japan Ltd.). In the real-time PCR, the expression levels of CES1 mRNA were compared by the ΔΔ CT method using the above reverse transcribed cDNA and CES1, or, as an endogenous control, Tsqman primer for RPLP0 (Life Technologies Japan Ltd., CES1:Hs00275627-m1, RPLP0:HS00420695_gH), Taqma.n Gene Expression Master Mix (Life Technologies Japan Ltd.).
Normal human epidermal keratinocytes (Life Technologies Japan Ltd.) were seeded into a 6-well plate so that the number of cells in each well was […] and cultured in HuMedia-KG2 (KURABO INDUSTRIES LTD.) overnight. Then, suiforaphane (Sigma-Aldrich) was exposed to the cells so that the final concentration was 0.1, 1, and 10 μM, and the cells were cultured for 48 hours. The cells after culture was washed with a phosphate buffer (D-PBS (−)) and RNA was extracted using RNeasy Mini Kits (QIAGEN) according to the manual attached. The RNA concentration was calculated by using NanoDrop 1000 (Thermo Fisher Scientific). Total RNA extracted was reverse-transcribed using High-Capacity RNA-to-cDNA Kit (Life Technologies Japan Ltd.), and then real-time PCR was performed using 7500 Fast Real-Time PCR System (Life Technologies Japan Ltd.). In the real-time PCR, the expression levels of the gene were compared by the ΔΔ CT method using the above reverse transcribed cDNA and carboxylesterase 1, or, as an endogenous control, Taqman primer for RPLP0 (Life Technologies Japan Ltd., CES1:Hs00275627-m1, RPLP0:HS00420895_gH), Taqman Gene Expression Master Mix (Life Technologies Japan Ltd.).

Row | amount of IL-1α in the medium [2] | Compound | sensory irritation score [1] | Relative gene expression level (with non treat as 1.0) (CES1; sulforaphane 0.1 μM) | Relative gene expression level (with non treat as 1.0) (CES1; sulforaphane 1 μM) | Relative gene expression level (with non treat as 1.0) (CES1; sulforaphane 10 μM) | expression level of CES1 mRNA (CES1; sulforaphane 0.1, 1 and 10 μM, summary of Table 1)
1 | – | COC(=O)c1ccc(O)cc1 [MP, methyl p-hydroxybenzoate] | felt some irritation | – | – | – | –
2 | much smaller than that when MP was used | O=C(O)c1ccc(O)cc1 [PHBA, p-hydroxybenzoic acid] | very mild | – | – | – | –
3 | – | C[S+]([O-])CCCCN=C=S (stereo not shown) [Sulforaphane, 4-(methylsulfinyl)butyl isothiocyanate] | – | 1.5 ± 0.33 | 3.6 ± 0.90 | 35 ± 8.4 | increased the expression level of CES1 mRNA

Reference: patent publication US11969436B2, “Method for treating skin irritation caused by parabens” (Kao Corporation, priority 2017, dated 2024)
